# “Also recorded” adds a separate entry of the source.
# Key:
# [1] = tested on: primary murine embryonic fibroblasts; experiment: Immunofluorescence pattern of 5T4 and CXCR4 in primary murine embryonic fibroblasts after cytoskeleton, Golgi or microtubule disruption; assay type: cell-based, mouse; settings: for cell surface expression and colocalisation of 5T4 and CXCR4 versus untreated controls: 985 nM cytochalasin D or 3.6 μM brefeldin A; for cell surface expression and colocalisation of 5T4 and CXCR4 after washout: one hour after washout
# Experimental: Immunofluorescence In Situ. These studies were performed using methods described previously (39), with cells grown on 24 well glass bottomed plates, (Iwaki, supplied through Jencons) for ES cells the wells were pre coated with 0.1% gelatine. Primary antibodies used were rabbit anti-CXCR4, (5 μg/ml) (Abcam), rat-anti-DPIV (5 μg/ml), (R&D), mAb anti-human 5T4 (10 μg/ml,), mAb anti-m5T4, 9A7 (20 μg/ml), B3F1 (5 μg/ml), rabbit anti-CXCR7 (AbCam, 5 μg/ml), rat mAb anti-CXCR6 (R&D, 5 μg/ml), rat mAb anti-CXCR3 (R&D, 5 μg/ml), Alexa Fluor 488 mouse anti-myc tag clone 4A6 (Millipore) or appropriate isotype controls. Secondary detection was performed by incubation for 1 hour at 4° C. with species or IgG sub-class specific Alexa Fluor conjugated secondary antibodies (Invitrogen) (6 μg/ml) as appropriate for multiple antigen detection. Labelling of the endoplasmic reticulum and Golgi apparatus was performed using NBD C6-Ceramide or Endotracker, (Invitrogen, Molecular Probes) as per manufacturer's instructions. […]. F-Actin was labeled using Phaloidin-633 Alexa Fluor (Invitrogen). Microtubules were visualised by murine IgG recognizing β-tubulin (Cancer Research UK). Cells were imaged on a Zeiss Axiovert 200M with a plan-fluar ×100 1.45NA objective lens and a Roper Cascade EMCCD 512B camera. Illumination was achieved using a 300W Xenon system, (Sutter) which presented the system as an even field of illumination in addition to the appropriate neutral density and Schott filters to modulate the light source. Wavelength selection was achieved using external filter wheels, (Applied Scientific Instrumentation) and the ETSedat set, (Chroma). Data sets were captured with an axial resolution of 100 nm using the MS-2000 stage (Applied Scientific Instrumentation) and a lateral resolution of 0.1645 microns per pixel. The system was full controlled and automated via the FRAP-AI software, (MAG Biosystems/Metamorph). All of the data sets were deconvolved using Huygens (Scientific Volume Imaging) after which visualization and analysis was carried out using Imaris, (Bitplane). Colocalisation was assessed by analysis of the deconvolved images utilising ImarisColoc software (Bitplane) in manual mode. A 2D scatter plot showing intensity pairs in the image was thresholded to include only colocalized points in the three dimensional volume.
# Primary murine embryonic fibroblasts were assessed for their pattern of 5T4 and CXCR4 expression by immunofluorescence following disruption of the cytoskeleton, Golgi or microtubules for 24 hours with cytochalasin D, brefeldin A or nocodazole respectively. Cytoskeleton, Golgi and microtubule disruption was determined by immunofluorescence with AlexaFluor 633 conjugated phalloidin, BODIPY labeled NBD C6 ceramide and anti-tubulin antibodies respectively. […] Clearly plasma membrane detection of co-localized 5T4/CXCR4 molecules is dependent on microtubules and the molecules are not obligatorily associated at the Golgi.
# ERK phosphorylation = ERK phosphorylation in MEFs by Western blot; assay type: cell-based, mouse; settings: 50 μM PD98059, 50 μM LY294002 or 10 μM AMD3100; for increase in ERK phosphorylation in response to CXCL12 stimulation: WT MEFs; for increase in ERK1/2 phosphorylation in response to PMA stimulation: WT and 5T4KO MEFs
# Experimental: Western blots were carried out using a BioRad Mini-PROTEAN Tetra (Thermo Fisher) supplemented with protease and phosphatase inhibitor cocktails (Thermo Fisher). RIPA buffer (50 mM Tris-Cl pH 7.4, 150 mM NaCl, 1% NP40, 0.25% Na-deoxycholate, 1 mM PMSF and protease and phosphatase inhibitor cocktail) was used as an alternative method of cell lysis. […] Other primary antibodies used were ERK1/2, phospho-ERK1/2 (Thr202/Tyr204/Thr185/Tyr187), AKT and phospho-AKT (Thr308) (Cell Signalling Technology) at 1:1000. Following secondary antibody labelling using appropriate HRP conjugates (AbSerotec) hybridizing bands were detected using SuperSignal West Dura (Thermo Fischer). For immunoprecipitation experiments cells were lysed in M-PER (Thermo Fischer) according to manufacturer's instructions and enriched for the membrane fraction on a 45% sucrose gradient by ultracentrifugation. 100 μg of the membrane enriched fraction was incubated with 1 μg of rabbit polyclonal anti-CXCR4 (Abcam) or 1 μg of mouse anti-monoclonal h5T4 or appropriate irrelevant control antibodies for 1 hour at room temperature. A 50% slurry of Protein G beads (Amersham) was then added and incubated for 1 hour at room temperature. Beads were subsequently washed 7 times with 1 ml PBS+0.1% Triton X-100, and then resuspended in PAGE loading buffer (Thermo Fisher), boiled for 3 minutes and loaded onto 4-15% gradient gel and processed as described for Westerns above. Gels were run in Lamelli buffer (25 mM Tris-base, 192 mM glycine, 0.1% SDS). Antibodies to CXCR7 were used in western blot analysis of PAGE separated MEF cells solubilised 1%.
# CXCR4 [2] = biological target: T1, CXCR4 (Mus musculus, UniProt P70658); settings: in vivo; cited from earlier work
# 5T4KO ES cells = experiment: CXCL12 chemotaxis of 5T4KO ES cells in transwell chambers; assay type: cell-based, mouse; settings: undifferentiated or differentiating 5T4KO ES cells; 10 μM
# Experimental: (§1) Chemotaxis was assessed using transwell chambers as previously described for cellular motility assays [16; the contents of which are expressly incorporated herein in their entirety] in the presence or absence of the chemokine CXCL12 (R&D systems), at a concentration of 10 ng/well for ES cell experiments, and 30 ng/well for all others. Inhibition studies were performed in the presence of 10 μM Diprotin A (Sigma) for CD26, 10 μM AMD3100 (Sigma) for CXCR4 or 10 μg/well mouse anti-CXCL12 (R&D systems) or Pertussis Toxin (Sigma, 10 ng/ml). For m5T4 specific mAb inhibition of chemotaxis or control Ig; antibodies were premixed with 50,000 differentiating WT-ES or MEF cells/ml and added to the transwell chambers as above. CXCL16 (R&D 10 ng/ml), the ligand for CXCR6 and CXCL10 (R&D 100 ng/ml), a ligand for CXCR3 were used to assess chemotaxis in undifferentiated and/or differentiating WT and 5T4KO ES cells.
# JEG-3 = experiment: CXCL12 chemotaxis of JEG-3 choriocarcinoma cells; assay type: cell-based, human; settings: 10 μM diprotin A, 30 ng/well CXCL12
# Experimental: as §1
# SKOV3 = experiment: CXCL12 chemotaxis of SKOV3 ovarian carcinoma cells; assay type: cell-based, human; settings: 10 μM diprotin A, 10 ng/well CXCL12
# Experimental: as §1, with “at a concentration of 10 ng/well for ES cell experiments, and 30 ng/well for all others.” left out
# A series of 5T4 constructs were built for this study and cloned into pCMVα, and the retroviral vector SFβ91 [32] that we had previously inserted the cDNA cassette eGFP under the transcriptional control of an IRES (Clonetech). […] A multiplicity of 30 infectious units per cell led to 100% of cells expressing m5T4 or h5T4 or GFP at 48 hours as assessed by FACS and when other biological assessments were made. […] After 3 days, GFP positive cells were FACS sorted and assessed for 5T4 expression and chemotaxis to CXCL12.
# CAOV3 = experiment: CXCL12 chemotaxis of CAOV3 ovarian carcinoma cells; assay type: cell-based, human; settings: 10 μM diprotin A, 10 ng/well CXCL12
# Experimental: as §1, with “at a concentration of 10 ng/well for ES cell experiments, and 30 ng/well for all others.” left out
# WT and 5T4KO ES cells = experiment: CXCL10 chemotaxis of ES cells; assay type: cell-based, mouse; settings: 100 ng/well CXCL10
# WT-ES cells = experiment: CXCL12 chemotaxis of WT-ES cells in transwell chambers; assay type: cell-based, mouse
# Experimental: as §1
# CXCR4 [3] = biological target: T1, CXCR4; settings: in vivo; cited from earlier work; remark: listed apart in the source
# T1 sequence (P70658 whole entry): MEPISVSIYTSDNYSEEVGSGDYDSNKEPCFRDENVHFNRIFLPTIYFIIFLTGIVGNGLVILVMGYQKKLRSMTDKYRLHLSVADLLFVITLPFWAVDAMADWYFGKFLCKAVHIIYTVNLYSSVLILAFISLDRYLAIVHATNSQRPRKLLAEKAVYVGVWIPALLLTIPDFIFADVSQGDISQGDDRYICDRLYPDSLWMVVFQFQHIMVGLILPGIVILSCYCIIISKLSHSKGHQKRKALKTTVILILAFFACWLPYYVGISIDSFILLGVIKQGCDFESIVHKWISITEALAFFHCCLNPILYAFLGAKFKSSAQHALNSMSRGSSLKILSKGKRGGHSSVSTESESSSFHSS
compound,measurement,setting,value
C=C1[C@@H](C)[C@H]2[C@H](Cc3ccccc3)NC(=O)[C@]23[C@H](OC(C)=O)/C=C/[C@@](C)(O)C(=O)[C@@H](C)C/C=C/[C@H]3[C@@H]1O [cytochalasin D],polymerized actin filaments (phalloidin immunofluorescence),"[1]; 24 hours treatment, 985 nM cytochalasin D",no polymerized actin filaments were detectable
same,cell surface expression and colocalisation of 5T4 and CXCR4 versus untreated controls,[1]; 24 hours,no detectable differences
COc1cccc(-c2cc(=O)c3ccccc3o2)c1N [PD98059],increase in ERK phosphorylation in response to CXCL12 stimulation,ERK phosphorylation,prevented
same,increase in ERK1/2 phosphorylation in response to PMA stimulation,ERK phosphorylation,blocked by MEK1 inhibition
c1ccc(CNCc2ccc(CN3CCCNCCNCCCNCC3)cc2)nc1 [AMD3465],pulmonary granuloma formation,CXCR4 [2],eliminates
CC[C@H](C)[C@H](N)C(=O)N1CCC[C@H]1C(=O)N[C@H](C(=O)O)[C@@H](C)CC [diprotin A],chemotactic response to CXCL12 with CD26 inhibitor,5T4KO ES cells,did not restore chemotactic behaviour; also recorded: no change in chemotactic response
same,CXCL12-mediated chemotaxis with CD26 inhibitor,JEG-3,only evident in the presence
same,CXCL12 chemotaxis with CD26 inhibitor,SKOV3,further enhanced
same,CXCL12 chemotaxis with CD26 inhibitor,CAOV3,further enhanced
same,chemotaxis towards CXCL10 with CD26 inhibitor,"WT and 5T4KO ES cells; undifferentiated ES cells, 10 μM",acquire increased chemotaxis towards CXCL10
C[C@H]1CCC/C=C/[C@@H]2C[C@H](O)C[C@H]2[C@H](O)/C=C/C(=O)O1 [brefeldin A],cell surface expression and colocalisation of 5T4 and CXCR4 versus untreated controls,[1]; 24 hours,reduced levels of cell surface expression of both antigens
same,cell surface expression and colocalisation of 5T4 and CXCR4 after washout,[1],returned to normal levels; also recorded: returned to levels with marked cell surface colocalisation similar to that of controls
COC(=O)Nc1nc2ccc(C(=O)c3cccs3)cc2[nH]1 [nocodazole],cell surface detection of 5T4,"[1]; 24 hours, 332 nM nocodazole",remained detectable at the cell surface albeit at a diminished level; also recorded: still detectable at the cell surface albeit at a diminished level
same,cell surface detection of CXCR4,"[1]; 24 hours, 332 nM nocodazole",no cell surface detection of CXCR4
same,cell surface expression and colocalisation of 5T4 and CXCR4 after washout,[1],both antigens were detectable at the cell surface with marked colocalisation similar to controls
pertussis toxin,CXCL10 related chemotaxis with Gi protein inhibitor,"WT and 5T4KO ES cells; WT and KO differentiating ES cells, 10 ng/ml",inhibits CXCL10 related chemotaxis
c1cc(CN2CCCNCCNCCCNCC2)ccc1CN1CCCNCCNCCCNCC1 [AMD3100],chemotaxis to CXCL12 with CXCR4 inhibitor,"WT-ES cells; differentiating WT-ES cells, 2 hr pre-incubation with 10 μM",blocked
same,chemotaxis to CXCL12 with CXCR4 inhibitor,"WT-ES cells; undifferentiated WT-ES cells, 10 μM",no effect
same,increase in ERK phosphorylation in response to CXCL12 stimulation,ERK phosphorylation,prevented
same,increase in ERK1/2 phosphorylation in response to PMA stimulation,ERK phosphorylation,independent of both CXCR4 and PI3K activity
same,allergic lung inflammation and airway hyperreactivity,CXCR4 [3],attenuates
